# In patent US20230043863A1, “HETEROAROMATIC DERIVATIVES FOR USE AS REGULATOR, PREPARATION METHOD THEREFOR AND USE THEREOF” (JIANGSU HANSOH PHARMACEUTICAL GROUP CO., LTD., priority 2018, published 2023):
# What was measured:
# [1] = test system: JAK-STAT signal pathway of U266 cells; assay: Inhibition of cellular JAK-STAT signal pathway (STAT3 phosphorylation) in U266 cells; assay type: cell-based, human; settings: Homo sapiens, U-266, INF-a 1000 U/mL stimulation
# In short: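 U266 cells (100-300 K/well) preincubated 2 h at room temperature with serially diluted compound, then stimulated 15 min with IFN-α at 1000 U/mL final. After lysis, STAT3 phosphorylation read by LANCE Ultra TR-FRET (Eu antibody 0.5 nM, ULight antibody 5 nM, overnight) at 665 nm; IC50 from 4-parameter fit of inhibition versus DMSO and negative controls.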
# JAK1 = JAK1 (Homo sapiens, UniProt P23458); assay: JAK kinase activity inhibition, TR-FRET (JAK1); assay type: biochemical; settings: TR-FRET kinase assay
# JAK1, sequence (P23458 whole entry): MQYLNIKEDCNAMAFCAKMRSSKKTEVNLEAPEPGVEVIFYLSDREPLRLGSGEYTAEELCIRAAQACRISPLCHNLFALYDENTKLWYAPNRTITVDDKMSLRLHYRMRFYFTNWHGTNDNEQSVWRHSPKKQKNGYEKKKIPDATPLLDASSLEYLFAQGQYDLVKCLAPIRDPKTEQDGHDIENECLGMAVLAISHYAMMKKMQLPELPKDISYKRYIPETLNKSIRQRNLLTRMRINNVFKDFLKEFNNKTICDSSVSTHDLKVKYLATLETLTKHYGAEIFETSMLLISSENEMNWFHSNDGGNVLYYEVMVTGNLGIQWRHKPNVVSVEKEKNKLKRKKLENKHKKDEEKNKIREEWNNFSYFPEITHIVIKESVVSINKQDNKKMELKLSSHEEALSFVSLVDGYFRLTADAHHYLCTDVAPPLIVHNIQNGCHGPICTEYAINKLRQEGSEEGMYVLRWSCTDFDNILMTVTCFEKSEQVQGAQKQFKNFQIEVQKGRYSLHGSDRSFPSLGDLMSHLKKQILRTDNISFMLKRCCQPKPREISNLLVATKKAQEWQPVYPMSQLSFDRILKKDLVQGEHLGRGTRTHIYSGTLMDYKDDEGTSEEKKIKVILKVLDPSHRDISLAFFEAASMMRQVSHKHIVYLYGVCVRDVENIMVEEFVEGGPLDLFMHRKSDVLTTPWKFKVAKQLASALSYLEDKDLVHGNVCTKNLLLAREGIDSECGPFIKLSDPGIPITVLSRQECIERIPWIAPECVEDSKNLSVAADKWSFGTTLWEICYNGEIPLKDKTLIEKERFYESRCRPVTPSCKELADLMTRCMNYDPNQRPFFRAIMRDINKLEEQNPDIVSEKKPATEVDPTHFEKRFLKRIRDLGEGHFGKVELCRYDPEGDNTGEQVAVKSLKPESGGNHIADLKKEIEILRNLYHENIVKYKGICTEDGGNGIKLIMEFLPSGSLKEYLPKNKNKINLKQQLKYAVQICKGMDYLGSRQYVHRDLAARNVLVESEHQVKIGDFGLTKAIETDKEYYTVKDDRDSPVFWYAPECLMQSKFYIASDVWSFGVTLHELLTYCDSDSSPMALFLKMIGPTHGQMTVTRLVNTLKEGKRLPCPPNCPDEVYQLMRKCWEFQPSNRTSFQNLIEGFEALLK
# In short: (§1)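 TR-FRET read (≈620 and 665 nm) after EDTA quench and 1-24 h antibody detection at RT. Kinase 0.1-20 nM, peptide substrate + ATP, 0.5-5 h RT reaction in HEPES 50-250 mM, MgCl2 5-20 mM. IC50 from 4-parameter fit vs DMSO and no-kinase controls.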
# JAK3 = target: T1, JAK3 (Homo sapiens, UniProt P52333); assay: JAK kinase activity inhibition, TR-FRET (JAK3); assay type: biochemical; settings: TR-FRET kinase assay
# T1 sequence (P52333 1-1124): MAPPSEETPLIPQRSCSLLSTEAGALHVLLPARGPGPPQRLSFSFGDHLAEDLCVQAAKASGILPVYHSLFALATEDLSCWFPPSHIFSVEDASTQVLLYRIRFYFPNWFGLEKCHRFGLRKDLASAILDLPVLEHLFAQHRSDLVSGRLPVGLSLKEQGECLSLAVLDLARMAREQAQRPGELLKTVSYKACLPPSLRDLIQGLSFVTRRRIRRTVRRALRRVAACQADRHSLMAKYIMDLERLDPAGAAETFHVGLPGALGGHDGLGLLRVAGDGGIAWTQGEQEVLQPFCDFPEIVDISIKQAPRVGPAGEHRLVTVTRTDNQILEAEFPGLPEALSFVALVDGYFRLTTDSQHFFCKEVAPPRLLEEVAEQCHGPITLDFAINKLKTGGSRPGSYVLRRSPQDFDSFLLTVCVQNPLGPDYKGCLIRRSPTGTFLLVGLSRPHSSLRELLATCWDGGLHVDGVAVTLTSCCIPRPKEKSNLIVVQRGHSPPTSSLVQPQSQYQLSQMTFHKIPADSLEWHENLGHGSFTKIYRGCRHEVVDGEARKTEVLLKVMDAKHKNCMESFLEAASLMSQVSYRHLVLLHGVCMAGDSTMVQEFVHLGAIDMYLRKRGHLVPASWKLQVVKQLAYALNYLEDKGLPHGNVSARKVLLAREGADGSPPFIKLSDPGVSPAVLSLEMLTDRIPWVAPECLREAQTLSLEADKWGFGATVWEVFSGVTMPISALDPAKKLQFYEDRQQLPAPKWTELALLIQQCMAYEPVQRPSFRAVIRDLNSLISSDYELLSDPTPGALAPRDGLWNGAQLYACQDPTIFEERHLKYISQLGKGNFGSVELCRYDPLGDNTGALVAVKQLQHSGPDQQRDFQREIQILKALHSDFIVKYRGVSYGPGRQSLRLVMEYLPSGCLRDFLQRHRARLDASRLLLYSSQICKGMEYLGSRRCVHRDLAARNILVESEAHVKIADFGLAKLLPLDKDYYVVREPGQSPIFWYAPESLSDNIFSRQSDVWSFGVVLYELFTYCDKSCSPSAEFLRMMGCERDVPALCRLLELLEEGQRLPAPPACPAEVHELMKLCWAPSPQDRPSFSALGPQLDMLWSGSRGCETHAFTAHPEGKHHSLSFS
# In short: as §1
Structure (SMILES),IC50 [1] [nM],IC50 (JAK1) [nM],IC50 (JAK3) [nM]
"Cc1cnc(Nc2cc3ncccc3c(N[C@@H]3C[C@H]4CC[C@@H](C3)N4CCC#N)n2)s1 [Embodiment 1, 3-((3-exo)-3-((7-((5-methylthioazol-2-yl)amino)-1,6-diazanaphthalen-5-yl)amino)-8-azabicyclo[3.2.1]oct-8-yl)propionitrile]",0.15,0.34,2.68
"Cc1cc(Nc2nc(N[C@@H]3C[C@H]4CC[C@@H](C3)N4CCC#N)nc3ccsc23)n[nH]1 [Embodiment 60, 3-((3-exo)-3-((4-((5-methyl-1H-pyrazol-3-yl)amino)thieno[3,2-d]pyrimidin-2-yl)amino)-8-azabicyclo[3.2.1]oct-8-yl)propionitrile]",2.9,0.12,–
"COc1ccc2c(Nc3cc(C)[nH]n3)nc(N[C@@H]3C[C@H]4CC[C@@H](C3)N4CCC#N)nc2c1 [Embodiment 169, 3-((3-exo)-3-((7-methoxyl-4-((5-methyl-1H-pyrazol-3-yl)amino)quinazolin-2-yl)amino)-8-azabicyclo[3.2.1]oct-8-yl)propionitrile]",9.32,0.63,28.8
"Cc1cc(Nc2nc(N[C@@H]3C[C@H]4CC[C@@H](C3)N4CCC#N)nc3cc(Br)ccc23)n[nH]1 [Embodiment 170, 3-((3-exo)-3-((7-bromine-4-((5-methyl-1H-pyrazol-3-yl)amino)quinazolin-2-yl)amino)-8-azabicyclo[3.2.1]oct-8-yl)propionitrile]",3.35,0.66,–
"Cc1cc(Nc2nc(N[C@@H]3C[C@H]4CC[C@@H](C3)N4CCC#N)nc3cc(Cl)ccc23)n[nH]1 [Embodiment 171, 3-((3-exo)-3-((7-chloro-4-((5-methyl-1H-pyrazol-3-yl)amino)quinazolin-2-yl)amino)-8-azabicyclo[3.2.1]oct-8-yl)propionitrile]",0.85,0.85,23.3
"Cc1cc(Nc2nc(N[C@@H]3C[C@H]4CC[C@@H](C3)N4S(=O)(=O)N3CC(C#N)C3)nc3ccccc23)n[nH]1 [Embodiment 213, 1-(((3-exo)-3-((4-((5-methyl-1H-pyrazol-3-yl)amino)quinazolin-2-yl)amino)-8-azabicyclo[3.2.1]oct-8-yl)sulfonyl)azetindin-3-formonitrile]",11.1,0.2,12.6
Cc1cc(Nc2nc(N[C@@H]3C[C@H]4CC[C@@H](C3)N4S(=O)(=O)N3CC(C#N)C3)nc3cc(Cl)ccc23)n[nH]1 [Embodiment 214],17.7,0.35,133
"Cc1cc(Nc2nc(N[C@@H]3C[C@H]4CC[C@@H](C3)N4S(=O)(=O)N3CC(C#N)C3)nc3sccc23)n[nH]1 [Embodiment 237, 1-(((3-exo)-3-((4-((5-methyl-1H-pyrazol-3-yl)amino)thieno[2,3-d]pyrimidin-2-yl)amino)-8-azabicyclo[3.2.1]oct-8-yl)sulfonyl)azetindin-3-formonitrile]",0.56,0.07,3.62
Cc1cc(Nc2nc(N[C@@H]3C[C@H]4CCC[C@@H](C3)N4S(=O)(=O)N3CC(C#N)C3)nc3sccc23)n[nH]1 [Embodiment 238],1.15,0.03,0.71
"Cc1cc(Nc2nc(N[C@@H]3C[C@H]4CCC[C@@H](C3)N4C(=O)CN3CCOCC3)nc3sccc23)n[nH]1 [Embodiment 246, 1-((3-exo)-3-((4-((5-methyl-1H-pyrazol-3-yl)amino)thieno[2,3-d]pyrimidin-2-yl)amino)-9-azabicyclo[3.3.1]non-9-yl)-2-morpholinoethane-1-one]",1,0.22,6.87
"CNCC(=O)N1[C@@H]2CCC[C@H]1C[C@H](Nc1nc(Nc3cc(C)[nH]n3)c3ccsc3n1)C2 [Embodiment 247, 1-((3-exo)-3-((4-((5-methyl-1H-pyrazol-3-yl)amino)thieno[2,3-d]pyrimidin-2-yl)amino)-9-azabicyclo[3.3.1]non-9-yl)-2-(methylamino)-ethane-1-one]",2.27,0.1,2.4
"Cc1cc(Nc2nc(N(C)[C@@H]3C[C@H]4CCC[C@@H](C3)N4C(=O)CN3CCN(C)CC3)nc3sccc23)n[nH]1 [Embodiment 257, 1-((3-exo)-3-(methyl(4-((5-methyl-1H-pyrazol-3-yl)amino)thieno[2,3-d]pyrimidin-2-yl)amino)-9-azabicyclo[3.3.1]non-9-yl)-2-(4-methylpiperazin-1-yl)ethane-1-one]",1.45,0.07,19.9
"Cc1cc(Nc2nc(N[C@@H]3C[C@H]4CCC[C@@H](C3)N4C(=O)c3ccccn3)nc3sccc23)n[nH]1 [Embodiment 260, ((3-exo)-3-((4-((5-methyl-1H-pyrazol-3-yl)amino)thieno[2,3-d]pyrimidin-2-yl)amino)-9-azabicyclo[3.3.1]non-9-yl)(pyridin-2-yl)methanone]",1.1,0.19,3.83
"Cc1cc(Nc2nc(N[C@@H]3C[C@H]4CC[C@@H](C3)N4CCC#N)nc3sc(C)cc23)n[nH]1 [Embodiment 277, 3-((3-exo)-3-((6-methyl-4-((5-methyl-1H-pyrazol-3-yl)amino)thieno[2,3-d]pyrimidin-2-yl)amino)-8-azabicyclo[3.2.1]oct-8-yl)propionitrile]",0.49,0.61,8.26
"Cc1cc(Nc2nc(N[C@@H]3C[C@H]4CCC[C@@H](C3)N4CCC#N)nc3scnc23)n[nH]1 [Embodiment 278, 3-((3-exo)-3-((7-((5-methyl-1H-pyrazol-3-yl)amino)thiazolo[5,4-d]pyrimidin-5-yl)amino)-9-azabicyclo[3.3.1]non-9-yl)propionitrile]",0.29,0.71,7.05
